PubChem BioAssay (NCI)
Where “and” joins values, the source holds several entries; their conditions need not be identical. Equal values may be shown once.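 Results reflect a 48-hour exposure of cells in 96-well plates to compound at five concentrations. Here, GI50 denotes the concentration required for 50% inhibition of growth. TGI: total growth inhibition.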

Columns and labels:
Test in all cases: NCI-60 cell line screen, 48 h
[1] = system: 786-0 renal
[2] = system: A498 renal
[3] = system: A549 NSCLC
[4] = system: ACHN renal
[5] = system: CAKI-1 renal
[6] = system: CCRF-CEM leukemia
[7] = system: COLO 205 colon
[8] = system: DU-145 prostate
[9] = system: EKVX NSCLC
[10] = system: HCC-2998 colon
[11] = system: HCT-116 colon
[12] = system: HCT-15 colon
[13] = system: HL-60(TB) leukemia
[14] = system: HOP-62 NSCLC
[15] = system: HOP-92 NSCLC
[16] = system: HS 578T breast
[17] = system: HT29 colon
[18] = system: IGROV1 ovarian
[19] = system: K-562 leukemia
[20] = system: KM12 colon
[21] = system: LOX IMVI melanoma
[22] = system: M14 melanoma
[23] = system: MALME-3M melanoma
[24] = system: MCF7 breast
[25] = system: MDA-MB-231 breast
[26] = system: MDA-MB-435
[27] = system: MDA-N
[28] = system: MOLT-4 leukemia
[29] = system: NCI-H226 lung
[30] = system: NCI-H23 lung
[31] = system: NCI-H460 lung
[32] = system: NCI-H522 lung
[33] = system: NCI/ADR-RES ovarian
[34] = system: OVCAR-3 ovarian
[35] = system: OVCAR-4 ovarian
[36] = system: OVCAR-5 ovarian
[37] = system: OVCAR-8 ovarian
[38] = system: PC-3 prostate
[39] = system: RPMI-8226 leukemia
[40] = system: RXF 393 renal
[41] = system: SF-268 CNS
[42] = system: SF-295 CNS
[43] = system: SF-539 CNS
[44] = system: SK-MEL-2 melanoma
[45] = system: SK-MEL-28 melanoma
[46] = system: SK-MEL-5 melanoma
[47] = system: SK-OV-3 ovarian
[48] = system: SN12C renal
[49] = system: SNB-19 CNS
[50] = system: SNB-75 CNS
[51] = system: SR leukemia
[52] = system: T-47D breast
[53] = system: TK-10 renal
[54] = system: U251 CNS
[55] = system: UACC-257 melanoma
[56] = system: UACC-62 melanoma
[57] = system: UO-31 renal
[58] = system: BT-549 breast
[59] = system: SW-620 colon

For `CN(C)C(c1ccccc1)C1COC2Cc3ccccc3C1O2` (centres undefined), the TGI [1] was greater than 100 µM, the TGI [2] was greater than 100 µM and the TGI [3] was greater than 100 µM. The TGI [4] was greater than 100 µM, the TGI [5] was greater than 100 µM and the TGI [6] was greater than 100 µM. It also gave a TGI [7] greater than 100 µM, a TGI [8] greater than 100 µM and a TGI [9] greater than 100 µM. The TGI [10] was greater than 100 µM, the TGI [11] was greater than 100 µM and the TGI [12] was greater than 100 µM. The TGI [13] was greater than 100 µM, the TGI [14] was greater than 100 µM and the TGI [15] was greater than 100 µM. It also gave a TGI [16] greater than 100 µM, a TGI [17] greater than 100 µM and a TGI [18] greater than 100 µM. It also gave a TGI [19] greater than 100 µM, a TGI [20] greater than 100 µM and a TGI [21] greater than 100 µM. For the same compound, the TGI [22] was greater than 100 µM, the TGI [23] was greater than 100 µM and the GI50 [24] was 84 µM and 23.6 µM. For the same compound, the TGI [24] was greater than 100 µM, the TGI [25] was greater than 100 µM and the TGI [26] was greater than 100 µM. For the same compound, the TGI [27] was greater than 100 µM, the TGI [28] was greater than 100 µM and the TGI [29] was greater than 100 µM. For the same compound, the TGI [30] was greater than 100 µM, the TGI [31] was greater than 100 µM and the TGI [32] was greater than 100 µM. For the same compound, the TGI [33] was greater than 100 µM, the TGI [34] was greater than 100 µM and the TGI [35] was greater than 100 µM. For the same compound, the TGI [36] was greater than 100 µM, the TGI [37] was greater than 100 µM and the TGI [38] was greater than 100 µM. For the same compound, the TGI [39] was greater than 100 µM, the TGI [40] was greater than 100 µM and the TGI [41] was greater than 100 µM. It also gave a TGI [42] greater than 100 µM, a TGI [43] greater than 100 µM and a TGI [44] greater than 100 µM. For the same compound, the TGI [45] was greater than 100 µM, the TGI [46] was greater than 100 µM and the TGI [47] was greater than 100 µM. The TGI [48] was greater than 100 µM, the TGI [49] was greater than 100 µM and the TGI [50] was 89 µM and 89.4 µM. It also gave a TGI [51] greater than 100 µM, a TGI [52] greater than 100 µM and a TGI [53] greater than 100 µM. For the same compound, the TGI [54] was greater than 100 µM, the TGI [55] was greater than 100 µM and the TGI [56] was greater than 100 µM. The TGI [57] was greater than 100 µM.

`CCOC(=O)c1cc2/c(=C\c3ccc(N(C)C)cc3)c3ccccc3n2[n+]1C` gave a TGI [1] of 15 µM, a TGI [2] of 27.7 µM and a TGI [3] greater than 40 µM. For the same compound, the TGI [4] was 20.4 µM, the TGI [58] was 7.11 µM and the TGI [5] was 15.3 µM. The TGI [6] was greater than 24.6 µM, the TGI [7] was 1.42 µM and the TGI [8] was 17.4 µM. For the same compound, the TGI [9] was 21.5 µM, the TGI [10] was 10 µM and the TGI [11] was 11.1 µM. It also gave a TGI [12] of 31.9 µM, a TGI [13] of 2.37 µM and a TGI [15] of 14.9 µM. It also gave a TGI [17] of 12.7 µM, a TGI [19] greater than 58 µM and a TGI [20] of 1.4 µM. It also gave a TGI [21] of 3.78 µM, a TGI [22] of 15.2 µM and a TGI [24] of 27.9 µM. For the same compound, the TGI [25] was 18.9 µM, the TGI [26] was 11.5 µM and the TGI [27] was 15.3 µM. The TGI [28] was greater than 23.4 µM, the TGI [29] was 24.6 µM and the TGI [30] was 12.3 µM. For the same compound, the TGI [31] was 12.6 µM, the TGI [33] was greater than 100 µM and the TGI [34] was 0.581 µM. It also gave a TGI [35] of 13.7 µM, a TGI [36] of 20.4 µM and a TGI [37] of 36.1 µM. The TGI [38] was 12.7 µM, the TGI [40] was 4.78 µM and the TGI [41] was 19.7 µM. The TGI [42] was 16.1 µM, the TGI [43] was 4.02 µM and the TGI [44] was 4.74 µM. It also gave a TGI [45] of 14 µM, a TGI [46] of 4.04 µM and a TGI [47] of 16.3 µM. The TGI [48] was 14.4 µM, the TGI [49] was 15.6 µM and the TGI [59] was 13.1 µM. For the same compound, the TGI [52] was 24.6 µM, the TGI [53] was 21.9 µM and the TGI [54] was 11.8 µM. It also gave a TGI [55] of 11.8 µM, a TGI [56] of 14.2 µM and a TGI [57] of 19.3 µM.
